Measured values published in PubChem BioAssay AID720670 (NMMLSC, 2013).
Records with an inconclusive call do not appear. Active and inactive are the calls of the source.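 How the source made its calls: active means inhibition of the calcium rise above 50%; inconclusive means blank fluorescence over twice solvent-only controls, so no ratio; inactive means inhibition below 50%.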

System: TALL-104 cells, thapsigargin Ca2+ rise, fura-2 ratio
Experiment: inhibitors of thapsigargin-evoked calcium rise, mechanism study for lytic granule exocytosis inhibitor project, TALL-104 cells, fura-2 fluorescence, CherryPick01 (AID 720670)
Details: at 30 µM; stronger effect = higher value

SMILES | inhibition
CCCNC(=O)Cn1sc2nc(C)cc(C)c2c1=O | 19.7% (inactive)
COc1ccccc1CNc1nc(NCc2ccc(C(C)C)cc2)c2sccc2n1 | 4.1% (inactive)
CCOc1ccc2nc(C)cc(Nc3cccc([N+](=O)[O-])c3)c2c1 | 77.7%
COc1ccccc1CNc1nc(NCc2ccc3occc3c2)c2sccc2n1 | 8.8% (inactive)
CN(c1ccccc1)S(=O)(=O)c1cccc(C(=O)NCCc2c[nH]c3ccccc23)c1 | 78.8%
Cc1cc(N2CCN(c3nc(-c4ccc([N+](=O)[O-])cc4)cs3)CC2)c2ccccc2n1 | -35.4% (inactive)
Cc1ccc(Nc2nc(NCc3ccco3)c3ccccc3n2)cc1 | -2.3% (inactive)
COC(=O)[C@]12CCCCC=C1N(Cc1cccc3ccccc13)C(=O)[C@H](CC(=O)NCc1ccc(OC)c(OC)c1)C2 | 6.3% (inactive)
O=C1CC(Sc2nnnn2-c2ccccc2)C(=O)N1c1cccc(Cl)c1 (configuration not stated) | 6.9% (inactive)
CC(=O)Nc1ccc2sn(-c3ccccc3)c(=O)c2c1 | 12.6% (inactive)
CCc1ccc2nc(N(CCCN(C)C)C(=O)c3ccc(S(=O)(=O)N4CCc5ccccc5C4)cc3)sc2c1 | 50.9%
Cc1ccc(-n2nnc3c(=O)oc4ccccc4c32)cc1 | 116%
CC(C)(c1ccccc1)c1ccc(OCC(O)CNC2CCN(Cc3ccccc3)CC2)cc1 (configuration not stated) | 27.1% (inactive)
c1ccc(CNc2nc(NCC3CC3)nc3cc(-c4ccccc4)sc23)cc1 | 70%
O=C1Nc2ccc(Br)cc2/C1=C/C(=O)c1ccccc1 | 15.1% (inactive)
COc1cccc(-c2cnc3c(NC=O)cc(-c4ccccc4)cn23)c1 | 66.5%
COc1ccc(-c2cc(NC=O)c3ncc(-c4ccccc4)n3c2)cc1OC | 31.5% (inactive)
CC1=NOC(=O)/C1=C/c1ccc(-c2ccc(Cl)cc2)o1 | 18.1% (inactive)
O=C1C=CC(=O)N1N(c1ccccc1)c1ccccc1 | 11.2% (inactive)
CCOC(=O)c1cc(-c2csc(Nc3c(C)cc(C)cc3C)n2)on1 | 79.7%
COc1cccc(-c2cnc3c(NC(C)=O)cc(-c4ccccc4OC)cn23)c1 | 81.3%

SMILES | inhibition
CCOC(=O)c1c(NC(=O)COc2ccccc2OCC)sc2c1CC(C)(C)NC2(C)C | 32.1% (inactive)
COc1ccc(N2C(=O)CC(Sc3nnc(-c4ccccc4)o3)C2=O)cc1 (configuration not stated) | -14.7% (inactive)
COC(=O)c1c(NC(=O)c2ccc(C(=O)c3ccccc3)cc2)sc2c1CC(C)(C)NC2(C)C | 73.3%
CCOC(=O)c1c(CSc2ccccc2)n(C)c2cc(Br)c(O)c(CN(C)C)c12 | 70.2%
CCc1ccc(/C=C2/Sc3ccccc3N(CC(=O)NCCCN3CCOCC3)C2=O)cc1 | 3.8% (inactive)
O=c1c2ccccc2sn1-c1ccccc1 | -10.6% (inactive)
COC(=O)c1c(NC(=O)c2nc3ccccc3s2)sc2c1CC(C)(C)NC2(C)C | 41.7% (inactive)
CC(=O)Nc1ccc2c(=O)n(-c3ccccc3)sc2c1 | 16.3% (inactive)
COc1ccc([N+](=O)[O-])cc1Nc1c2ccccc2nc2ccccc12 | 12.2% (inactive)
O=C(Cn1sc2ccccc2c1=O)NC12CC3CC(CC(C3)C1)C2 | 3% (inactive)
CCCCC[C@@H](C)N1C[C@@H](COCc2ccccc2)Oc2cc(N3CC[C@@H](N(C)C)C3)ccc2S1(=O)=O | 21.3% (inactive)
Cn1sc(=O)c2cc(S(=O)(=O)NC3CC3)ccc21 | 91.3%
COc1ccc(-c2cc(NC=O)c3ncc(-c4cccc(OC)c4)n3c2)cc1 | 22.8% (inactive)
COc1ccc(-n2sc3ccccc3c2=O)cc1 | 19.8% (inactive)
N#Cc1c(Nc2ccccc2Cl)s[nH]c1=O | 9.3% (inactive)
O=c1c2ccc(F)cc2sn1-c1ccccc1 | 7.1% (inactive)
COc1cccc(-c2cnc3c(NC(C)=O)cc(-c4ccsc4)cn23)c1 | 39.6% (inactive)
CC1=C(C)CS(=O)N(S(=O)(=O)c2ccc(Cl)cc2)C1 (configuration not stated) | 11.4% (inactive)
CCOc1cc(CNCCc2ccc(S(N)(=O)=O)cc2)ccc1OCc1ccc(Cl)cc1 | 63.5%
COc1cccc(NC(=O)Nc2nc(-c3ccc(OC)c(OC)c3)cs2)c1 | 90.9%
CCCCn1c(=N)n(CC(=O)c2ccc(Br)s2)c2ccccc21 | 58.6%

SMILES | inhibition
COc1cc(-c2coc3c(C(=O)NCc4ccc(OC)c(OC)c4)cccc23)ccc1O | 15.4% (inactive)
O=C(Nc1ccc(F)cc1)c1nc(S(=O)(=O)Cc2ccccc2)ncc1Cl | 75.7%
CC1(C(=O)OCC(=O)Nc2nc(-c3ccc(F)c(F)c3)cs2)CC1(Cl)Cl (configuration not stated) | 20.1% (inactive)
CCOc1ccc2nc(N(CCCN(C)C)C(=O)c3ccc(S(=O)(=O)N4CCc5ccccc5C4)cc3)sc2c1 | 69.4%
O=C(OCc1ccccc1)N(CCCCN(CCCNCc1ccccc1)C(=O)OCc1ccccc1)CCCNCc1ccccc1 | 57.3%
CCCCC[C@@H](C)N1C[C@@H](COCc2ccccc2)Oc2cc(N3CC[C@H](N(C)C)C3)ccc2S1(=O)=O | 37.6% (inactive)
CN(C)CCCNC(=S)NCC(c1ccc(Cl)cc1Cl)c1c[nH]c2ccccc12 (configuration not stated) | 10.4% (inactive)
O=CNc1cc(-c2ccsc2)cn2c(-c3ccccc3)cnc12 | 11% (inactive)
CCC(=C(c1ccc(OC)cc1)c1ccc(OC)cc1)c1cn(CC(O)CN2CCN(C)CC2)c2ccccc12 (configuration not stated) | 41.5% (inactive)
OC(CNCC(c1ccc(Cl)cc1Cl)c1c[nH]c2ccccc12)c1ccccc1 (configuration not stated) | 34.1% (inactive)
Cc1ccc(S(=O)(=O)n2ccc3c(OCCOCCNCc4ccc(F)cc4)cccc32)cc1 | 39.2% (inactive)
N#Cc1ccc(NC(=O)Nc2ccc(Oc3ccc(NC(=O)Nc4ccc(C#N)cc4)cc3)cc2)cc1 | -1.1% (inactive)
CCCS(=O)(=O)Nc1ccc(Nc2c3ccccc3nc3ccccc23)c(OC)c1 | 67.1%
O=c1c2ccccc2sn1-c1ccccc1F | 18.8% (inactive)
CCc1nc2ccc(C(=O)NC3CCN(Cc4ccccc4)CC3)cn2c1N(C)Cc1cc2ccccc2s1 | 3.6% (inactive)
CCCCC[C@@H](C)N1C[C@H](COCc2ccccc2)Oc2cc(N3CC[C@@H](N(C)C)C3)ccc2S1(=O)=O | 37.4% (inactive)
O=S(=O)(c1ccccc1)c1nnn2c1nc(NC1CCN(Cc3ccccc3)CC1)c1cc(Cl)ccc12 | 79.3%
CCOC(=O)c1nnc(-c2ccccc2)nc1Sc1ccccc1Cl | 21.2% (inactive)
O=C(Cn1sc2ccccc2c1=O)Nc1ccc(F)cc1 | -21.1% (inactive)
CC1COCC(C)N1C1=C(Cl)C(=O)c2ccccc2C1=O (configuration not stated) | 27% (inactive)
